In patent US12274711B2, “Method of determining Acute Myeloid Leukemia response to treatment with farnesyltransferase inhibitors” (Janssen Pharmaceutica NV, priority 2010, dated 2025):

How the values were obtained:
[1] = tested on: previously untreated, poor-risk AML; experiment: Phase 2 study of tipifarnib in older adults with previously untreated, poor-risk AML (clinical response, overall survival); assay type: in vivo, human
Text: In an exemplary example, bone marrow samples are collected from an open label, multicenter, non-comparative phase 2 study investigating the efficacy and safety of farnesyltransferase inhibition with tipifarnib (R115777, ZARNESTRA®) in older adults with previously untreated, poor-risk AML.
Briefly, HI was defined as any bone marrow blast count less than 5% or a reduction in bone marrow blasts by at least half. Progressive disease (PD) was defined as either >50% increase in bone marrow or circulating blast % from baseline, or new appearance of circulating blasts (on at least 2 consecutive occasions). Stable disease (SD) was defined as any response not meeting CR, PR, HI, or PD criteria.
This study examined gene expression profiles of leukemic bone marrow samples from patients enrolled in a Phase 2 clinical trial of the farnesyltransferase inhibitor tipifarnib in elderly patients with previously untreated poor-risk acute myelogenous leukemia. Lancet et al. (2006). Bone marrow from 67 patients was collected before treatment with tipifarnib and leukemic myeloid cells were enriched by Ficoll-density centrifugation (Table 1). Good quality total RNA from 13 responders (9 CR, 4 HI), 8 stable disease and 13 progressive disease patients was amplified, labeled, and hybridized to the Affymetrix U133A GeneChip. A total of 30 samples were evaluated by qPCR for validation of specific genes and 32 samples were evaluated for N-RAS mutational status.

relapsed/refractory AML = experiment: Independent dataset of 54 relapsed/refractory AML patients treated with tipifarnib; assay type: in vivo, human; conditions: 54 relapsed/refractory AML patient samples
Description: External validation of the TSP classifier was performed in an independent microarray dataset comprising of 54 relapsed/refractory AML patient samples. A diagnostic assay that predicts likely response to a cancer therapy should have a high sensitivity (and negative predictive value) since it is important to capture as many potential responders as possible. Therefore, to define an appropriate cutoff for testing the TSP classifier the need to obtain a high sensitivity of predicting responders while maintaining an acceptable level of specificity was considered. In the training set, the level of specificity that could be achieved ranged from approximately 30% to 100% when the sensitivity was set at 100% to 80%, respectively. To ensure the classifier would predict as many responders as possible a conservative cutoff that provided a specificity of approximately 60% in the training set was tested. When this cutoff was applied to the independent testing set of relapsed/refractory AML, the RASGRP1:APTX gene classifier stratified responders with 92% NPV and 27.6% PPV (compared to 18.5% prevalence) (FIG. 3C). The associated odds ratio for being a responder was 4.38.

[2] = Kaplan Meier analysis, RASGRP1 classifier, newly diagnosed AML (FIG. 1B)
[3] = qPCR RASGRP1:APTX classifier, cut-point 0, 30 patients (FIG. 3C)

Cn1cncc1[C@@](N)(c1ccc(Cl)cc1)c1ccc2c(c1)c(-c1cccc(Cl)c1)cc(=O)n2C [tipifarnib]
CR, (%) ([1]; All treated patients (n=158)): (14) %
CR, no. ([1]; All treated patients (n=158)): 22
HI, (%) ([1]; All treated patients (n=158)): (8) %
HI, no. ([1]; All treated patients (n=158)): 12
PD, (%) ([1]; All treated patients (n=158)): (37) %
PD, no. ([1]; All treated patients (n=158)): 58
PR, (%) ([1]; All treated patients (n=158)): (2) %
PR, no. ([1]; All treated patients (n=158)): 3
median overall survival of the responders [1, 2]: 386 days
median overall survival of those with progressive disease [1, 2]: 68 days
CR, (%) ([1]; PGx profiled patients (n=67)): (21) %
CR, no. ([1]; PGx profiled patients (n=67)): 14
HI, (%) ([1]; PGx profiled patients (n=67)): (10) %
HI, no. ([1]; PGx profiled patients (n=67)): 7
PD, (%) ([1]; PGx profiled patients (n=67)): (44) %
PD, no. ([1]; PGx profiled patients (n=67)): 30
PR, (%) ([1]; PGx profiled patients (n=67)): (2) %
PR, no. ([1]; PGx profiled patients (n=67)): 1
median overall survival of the predicted resistant patients [1, 3]: 82 days
median overall survival of those classified as responders [1, 3]: 295 days
prevalence of responders (relapsed/refractory AML): 18.5%
